Earlier results, collected in patent US20220323393A1, “COMPOSITIONS AND METHODS FOR TREATING AND/OR PREVENTING CARDIOVASCULAR DISEASE” (AMARIN PHARMACEUTICALS IRELAND LIMITED, priority 2010, published 2022).

Test system: subjects with AAMI
Conditions: 50 mg, Day 21 of repeated dosing

CN[C@@H](C)C/C=C/c1cncc(OC(C)C)c1 [Ispronicline]
Benefit to Power of Attention versus placebo: 61 ms
Power of Attention, mean (SD=61.22): -32.54 ms
